Molecules are shown by their SMILES. Counter-ions that a name gives are not always drawn.

The subject of data set [1] is histamine induced paw oedema. Put plainly: Histamine induced paw oedema (rat, water plethysmography). The note with it: 1.0 mg/kg intraperitoneally, male Sprague-Dawley rats, paw swelling 20 minutes after histamine. The data set is classed as in vivo. The protocol: I. Histamine Induced Paw Oedema The rat histamine paw oedema test was performed essentially as described by Amann et al. (Europ. J. Pharmacol. 279, 227-231, 1995). In brief 250-300 g male Sprague-Dawley rats were anaesthetized with pentobarbital sodium, and placed on a 32 degree heated table. Ten minutes later histamine (50 micoliter, 3 mg/ml) was injected in the right hind paw and 20 minutes hereafter the paw swelling was determined by water plethysmography (Ugo Basile). Test compounds were administered intraperitoneally at 15 minutes before the anaesthetics.

Data set [2] concerns histamine induced blood glucose rise. The data set is described as follows: Histamine induced hyperglycemia in mice. The data set is classed as in vivo. The note with it: 1.0 mg/kg ip 30 min before histamine icv, male NMRI mice, blood glucose at 40 min. The method, then: II. Histamine Induced Hyperglycemia in Mice
Conscious unfasted 25 g male NMRI mice are administered histamine chloride (90 nmol) icv according to the method of Nishibori et al. (J. Pharmacol. Exp. Therap. 241, 582-286,1987). Blood glucose is determined at time 0 and 40 min after the histamine injection. Test compounds are administered at 1.0 mg/kg ip 30 min before the histamine injection, and % inhibition refers to the capacity of the compounds to inhibit the histamine induced blood glucose rise.

On to `Cl.O=C(O)CCN1CCN(C2c3ccccc3CCc3ccccc32)CC1` [Example 2, 3-(4-(10,11-Dihydro-5H-dibenzo[a,d]cyclohepten-5-yl)piperazin-1-yl)propionic acid hydrochloride], for which the “Inhibition of histamine induced paw oedema, % inhibition” value in data set [1] was found to be 44%. As to `Cl.O=C(O)CCN1CCC(=C2c3ccccc3CCc3ccccc32)CC1` [Example 10, 3-(4-(10,11-Dihydro-5H-dibenzo[a,d]cyclohepten-5-ylidene)-1-piperidine)propionic acid hydrochloride], the “Inhibition of histamine induced paw oedema, % inhibition” value in data set [1] was 33%. Besides, the “Inhibition of histamine induced hyperglycemia, % inhibition” value in data set [2] worked out at 69%. In the case of `O=C(O)[C@@H]1CCCN(CCN2CCC(=C3c4ccccc4CSc4ccccc43)CC2)C1` (as salt: hydrochloride), the melting point (in general, the temperature of the solid-liquid transition) is 127 to 130 °C.

Take `Cl.O=C(O)CCN1CCC(=C2c3ccccc3CSc3ccccc32)CC1`: the melting point was 176 to 186 °C (dec.). Still for that read-out and setting: for `O=C(O)C1CCCN(CCCN2CCC(=C3c4ccccc4CSc4ccccc43)CC2)C1` (stereo not shown) (as salt: hydrochloride) the value was 245 to 255 °C (dec.); for `Cl.O=C(O)CN1CCC(=C2c3ccccc3CSc3ccccc32)CC1`, 170 to 175 °C.

The record behind these values is US6391890B1, “Heterocyclic compounds” (Novo Nordisk A/S, priority 1997, dated 2002).
